In the experiment the target is T1, PDK1 (Homo sapiens, UniProt O15530).
T1 construct: His6 (N)
T1 sequence (O15530 51-556 limits assumed): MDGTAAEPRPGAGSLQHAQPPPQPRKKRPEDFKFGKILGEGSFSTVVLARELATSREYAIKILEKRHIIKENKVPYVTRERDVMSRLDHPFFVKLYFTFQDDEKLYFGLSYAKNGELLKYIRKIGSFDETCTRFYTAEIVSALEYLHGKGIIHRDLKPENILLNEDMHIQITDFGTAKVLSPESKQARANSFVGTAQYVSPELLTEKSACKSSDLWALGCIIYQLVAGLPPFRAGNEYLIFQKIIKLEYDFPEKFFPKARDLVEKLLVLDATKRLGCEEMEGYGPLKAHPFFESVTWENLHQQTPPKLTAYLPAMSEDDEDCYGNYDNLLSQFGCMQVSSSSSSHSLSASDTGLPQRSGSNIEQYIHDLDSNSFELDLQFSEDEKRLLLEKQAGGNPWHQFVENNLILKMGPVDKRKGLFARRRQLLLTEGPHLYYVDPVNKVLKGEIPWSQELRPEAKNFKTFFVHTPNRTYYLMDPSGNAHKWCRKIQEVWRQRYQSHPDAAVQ
In words: Test for the inhibition of PDK1 (flashplate, 33P-ATP). To be noted: His6-PDK1 3.4 nM, 4 μM ATP, 30° C., 60 min. Type of experiment: biochemical. As for the experimental part:
The experimental batches are carried out in a flashplate system with 384 wells/microtitration plate.
In each case, the PDK1 sample His6-PDK1(1-50)(3.4 nM), the PDK1 substrate biotin-bA-bA-[…] (400 nM), 4 μM ATP (with 0.2 μCi of ^33 P-ATP/well) and the test substance in 50 μl of conventional experimental solution per well are incubated at 30° C. for 60 min. The test substances are employed in corresponding concentrations (if desired in a dilution series). The control is carried out without test substance. The reaction is stopped using standard methods and washed. The activity of the kinase is measured via the incorporated radioactivity in top count. In order to determine the non-specific kinase reaction (blank value), the experimental batches are carried out in the presence of 100 nM staurosporin.
The radioactivity (decompositions per minute) of the blank value (no use of test substance in the presence of staurosporin) is subtracted from all other radioactivity values. The controls (kinase activity without test substance) are set equal to 100 percent and all other radioactivity values (after subtracting the blank value) are expressed set in relation thereto (for example in % of the control).
[formula] IC50 values (50% inhibition) are determined with the aid of statistics programmes, such as, for example, RS1.
As for `CC(O)(c1ccccc1)c1cc(-c2c[nH]c3ncc(-c4cnn(CCO)c4)cc23)nc(N)n1` (single isomer, unassigned) [A96, 1-(2-amino-6-{5-[1-(2-hydroxyethyl)-1H-pyrazol-4-yl]-1H-pyrrolo[2,3-b]-pyridin-3-yl}pyrimidin-4-yl)-1-phenylethanol], the IC50 (usually the point on the concentration scale where inhibition reaches its midpoint) was found to be 18 nM.

With `CC(O)(c1ccccc1)c1cc(-c2c[nH]c3ncc(-c4cnn(CCO)c4)cc23)nc(N)n1` (single isomer, unassigned) [A97, 1-(2-amino-6-{5-[1-(2-hydroxyethyl)-1H-pyrazol-4-yl]-1H-pyrrolo[2,3-b]-pyridin-3-yl}pyrimidin-4-yl)-1-phenylethanol], half-maximal inhibition (IC50) was put at 38 nM. With `COCOC(C)(c1cccc(F)c1)c1nc(N)nc(-c2c[nH]c3ncc(Br)cc23)c1F` (stereo not shown) [A12, 4-(5-bromo-1H-pyrrolo[2,3-b]pyridin-3-yl)-5-fluoro-6-[1-(3-fluorophenyl)-1-methoxymethoxyethyl]pyrimidin-2-ylamine], the IC50 was greater than 20000 nM. The result for `CC(C(=O)N1CCCC1)n1cc(-c2cnc3[nH]cc(-c4cc(C(C)(O)c5ccccc5)nc(N)n4)c3c2)cn1` (stereo not shown) [A14, 2-(4-{3-[2-amino-6-(1-hydroxy-1-phenylethyl)pyrimidin-4-yl]-1H-pyrrolo-[2,3-b]pyridin-5-yl}pyrazol-1-yl)-1-pyrrolidin-1-ylpropan-1-one] reads 39 nM; that for `COCOC(C)(c1ccccc1)c1cc(-c2c[nH]c3ncc(Br)cc23)nc(N)n1` (stereo not shown) [A15, 4-(5-bromo-1H-pyrrolo[2,3-b]pyridin-3-yl)-6-(1-methoxymethoxy-1-phenylethyl)pyrimidin-2-ylamine], 500 nM; that for `CCCC(O)(c1ccccc1)c1cc(-c2c[nH]c3ncc(Br)cc23)nc(N)n1` (stereo not shown) [A16, 1-[2-amino-6-(5-bromo-1H-pyrrolo[2,3-b]pyridin-3-yl)pyrimidin-4-yl]-1-phenylbutan-1-ol], 280 nM. The value for `COCOC(C)(c1ccccc1)c1cc(-c2c[nH]c3ncc(-c4cnn(C)c4)cc23)nc(N)n1` (stereo not shown) [A17, 4-(1-methoxymethoxy-1-phenylethyl)-6-[5-(1-methyl-1H-pyrazol-4-yl)-1H-pyrrolo[2,3-b]pyridin-3-yl]pyrimidin-2-ylamine] was 58 nM; that for `COCOC(C)(c1cc(-c2c[nH]c3ncc(Br)cc23)nc(N)n1)c1ccccc1C` (stereo not shown) [A19, 4-(5-bromo-1H-pyrrolo[2,3-b]pyridin-3-yl)-6-(1-methoxymethoxy-1-o-tolylethyl)pyrimidin-2-ylamine] was 1500 nM; that for `COCOC(C)(c1cccc(C)c1)c1cc(-c2c[nH]c3ncc(-c4cnn(CCO)c4)cc23)nc(N)n1` (stereo not shown) [A22, 2-(4-{3-[2-amino-6-(1-methoxymethoxy-1-m-tolylethyl)pyrimidin-4-yl]-1H-pyrrolo[2,3-b]pyridin-5-yl}pyrazol-1-yl)ethanol] was 59 nM. As for `COCOC(C)(c1cccc(C)c1)c1cc(-c2c[nH]c3ncc(-c4cnn(C)c4)cc23)nc(N)n1` (stereo not shown) [A23, 4-(1-methoxymethoxy-1-m-tolylethyl)-6-[5-(1-methyl-1H-pyrazol-4-yl)-1H-pyrrolo[2,3-b]pyridin-3-yl]pyrimidin-2-ylamine], the midpoint of inhibition, the IC50, lay at 130 nM.

On to `Cn1cc(-c2cnc3[nH]cc(-c4cc(C(C)(O)c5cccnc5)nc(N)n4)c3c2)cn1` (stereo not shown) [A24, 1-{2-amino-6-[5-(1-methyl-1H-pyrazol-4-yl)-1H-pyrrolo[2,3-b]pyridin-3-yl]-pyrimidin-4-yl}-1-pyridin-3-ylethanol], for which the midpoint of inhibition, the IC50, lay at 56 nM. The result for `COCOC(C)(c1ccccc1)c1cc(-c2c[nH]c3ncc(-c4cnn(C)c4)cc23)nc(N)n1` (stereo not shown) [A25, 4-(1-methoxymethoxy-1-phenylethyl)-6-[5-(1-methyl-1H-pyrazol-4-yl)-1H-pyrrolo[2,3-b]pyridin-3-yl]pyrimidin-2-ylamine] reads 58 nM. With `CCC(O)(c1cccnc1)c1cc(-c2c[nH]c3ncc(-c4cnn(C)c4)cc23)nc(N)n1` (stereo not shown) [A26, 1-{2-amino-6-[5-(1-methyl-1H-pyrazol-4-yl)-1H-pyrrolo[2,3-b]pyridin-3-yl]-pyrimidin-4-yl}-1-pyridin-3-ylpropan-1-ol], the IC50 was found to be 43 nM.
